Data on one compound can be found in patent US20210060119A1, “OXYTOCIN COMPOSITIONS FOR TREATMENT OF TINNITUS” (New York University, priority 2019, published 2021).

The nature of this assay: clinical use of intranasal oxytocin formulations to treat tinnitus (patient reports, Tinnitus Handicap Inventory). The format is in vivo, human. From the text:
In an aspect, this disclosure provides a method for treating tinnitus. The method comprises administering intranasally to an individual a composition comprising or consisting essentially of oxytocin, wherein such administration results in treatment of tinnitus. The effectiveness of treatment of tinnitus may be monitored by quantifying tinnitus, such as by self-evaluation using clinically accepted techniques. An example is the Tinnitus Handicap Inventory (“THI”), a validated and published measurement technique. (Newman et al., Arch Otolaryngol Head Neck Surg, 1996, February 122(2), 143-8). In an embodiment, the improvement in an individual using THI may comprise an improvement of at least 10%. In various embodiments, the improvement may comprise from 10-100%, such as at least 20, 30, 40, 50, 60, 70, 80, 90, 95, or 99%.
This example describes clinical use of the present formulations to treat tinnitus. […] The formulation contained oxytocin, magnesium chloride, citric acid, and sodium citrate in sterile water. […] The dose was then increased to 45 IU (3 sprays of 15 IU) 4 times daily. […] A thickener was then added to the formulation keeping the oxytocin amount the same. […] Their score on the Tinnitus Handicap Inventory reduced from a pretreatment score of 96 (meaning a catastrophic level) to a current score of 14 (meaning mild or no tinnitus). The patient has remained improved over 1 year since initiating therapy. Their current dose is 22.5 IU in each nostril 4 times daily. Since their tinnitus occurs in distinct cycles, at times when tinnitus severity is loudest, they increase the dose to 5 times daily for 2 days. […] Their current handicap inventory is 8.
The dose was increased to 45 IU 4 times daily resulting in a decrease in tinnitus volume by approximately 30%.
In another patient, who developed constant tinnitus after a neck injury one year ago, a dose of 45 IU (22.5 IU in each nostril) 4 times daily was used for 30 days and is still ongoing. It has provided about 15% improvement.
In another patient with constant tinnitus a dose of 30 IU 4 times daily has been started and treatment is ongoing.

Setting [1] is: fifth patient, constant tinnitus, 30 IU 4 times daily, after 2 weeks.
Where [2] appears, read: first patient, 22.5 IU in each nostril 4 times daily, 5 times daily for 2 days when loudest, past 3 months.

`CC[C@H](C)[C@@H]1NC(=O)[C@H](Cc2ccc(O)cc2)NC(=O)[C@@H](N)CSSC[C@@H](C(=O)N2CCC[C@H]2C(=O)N[C@@H](CC(C)C)C(=O)NCC(N)=O)NC(=O)[C@H](CC(N)=O)NC(=O)[C@H](CCC(N)=O)NC1=O` [oxytocin, Cys-Tyr-Ile-Gln-Asn-Cys-Pro-Leu-Gly (SEQ ID NO:1)]: under setting [1], the “time without noticing the tinnitus” value was “several hours per day without noticing the tinnitus” and the tinnitus intensity entry is “tinnitus intensity has lowered”. The “time patient has remained improved since initiating therapy” value (first patient) is on record as “over 1 year”. Under setting [2], the “longest time without tinnitus” value is given as ≤ 10 days and the tinnitus severity entry is recorded as “reduced tinnitus severity”. In addition, the “current handicap inventory (Tinnitus Handicap Inventory)” value (first patient, 22.5 IU in each nostril 4 times daily, 5 times daily for 2 days when loudest, pretreatment 96) was 8. Also, the “score on the Tinnitus Handicap Inventory” value (first patient, formulation with thickener, pretreatment score 96 (catastrophic level), 14 means mild or no tinnitus) was 14. Besides, the tinnitus free period entry (first patient, thickener added, same oxytocin amount (45 IU 4 times daily)) is on record as “several days of tinnitus free period”. Further, the improvement entry (fourth patient, constant tinnitus after neck injury, 45 IU (22.5 IU in each nostril) 4 times daily for 30 days) is “about 15%”. Further, the tinnitus volume result (fourth patient, dose raised on occasions to 5 times daily) is “diminished tinnitus volume”. For the same compound, the relief of tinnitus result (general statement, lower amounts of oxytocin (under 20 IU per day)) is reported as “did not result in any significant relief”. The “time patient remains improved” value (second patient, 45 IU twice daily) is given as “more than a year”. For the same compound, the benefit entry (third patient, tinnitus caused by a drug, 30 IU twice daily) was “without benefit”. Further, the “decrease in tinnitus volume” value (third patient, tinnitus caused by a drug, 45 IU 4 times daily) is recorded as “approximately 30%”.
